Laboratory results taken from PubChem BioAssay (NCI).
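These data come from cells grown in 96-well plates and exposed to compound for 48 hours at five concentrations. The concentration for 50% growth inhibition is given as GI50. TGI denotes the concentration required for complete inhibition of growth.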

Columns and labels:
Test in all cases: inhibition of tumour cell growth, NCI panel, 48 h
SW-620 colon = system: SW-620 colon
RPMI-8226 leukemia = system: RPMI-8226 leukemia
CCRF-CEM leukemia = system: CCRF-CEM leukemia
A498 renal = system: A498 renal
COLO 205 colon = system: COLO 205 colon
SK-MEL-5 melanoma = system: SK-MEL-5 melanoma
T-47D breast = system: T-47D breast
ACHN renal = system: ACHN renal
DU-145 prostate = system: DU-145 prostate
SK-MEL-28 melanoma = system: SK-MEL-28 melanoma
SNB-75 CNS = system: SNB-75 CNS
PC-3 prostate = system: PC-3 prostate
UO-31 renal = system: UO-31 renal
SK-MEL-2 melanoma = system: SK-MEL-2 melanoma
A549 NSCLC = system: A549 NSCLC
HCT-15 colon = system: HCT-15 colon
SF-539 CNS = system: SF-539 CNS
MALME-3M melanoma = system: MALME-3M melanoma
UACC-257 melanoma = system: UACC-257 melanoma
HS 578T breast = system: HS 578T breast
OVCAR-5 ovarian = system: OVCAR-5 ovarian
M14 melanoma = system: M14 melanoma
NCI-H226 lung = system: NCI-H226 lung
HT29 colon = system: HT29 colon
OVCAR-8 ovarian = system: OVCAR-8 ovarian
NCI-H522 lung = system: NCI-H522 lung
MCF7 breast = system: MCF7 breast
HCC-2998 colon = system: HCC-2998 colon

FC(F)(F)c1nc(N2CCCC2)ncc1-c1nnnn1-c1ccc(Cl)cc1
GI50 (SW-620 colon): 30.4 µM
TGI (SW-620 colon): > 100 µM
GI50 (RPMI-8226 leukemia): 1.41 µM
TGI (RPMI-8226 leukemia): 12.8 µM
GI50 (CCRF-CEM leukemia): 6.71 µM
TGI (CCRF-CEM leukemia): 45.4 µM
GI50 (A498 renal): 18.3 µM
TGI (A498 renal): 62.7 µM
GI50 (COLO 205 colon): 10.7 µM
TGI (COLO 205 colon): 27.5 µM
GI50 (SK-MEL-5 melanoma): 12 µM
TGI (SK-MEL-5 melanoma): 28.3 µM
GI50 (T-47D breast): 5.29 µM
TGI (T-47D breast): > 100 µM
GI50 (ACHN renal): 18.7 µM
TGI (ACHN renal): > 100 µM
GI50 (DU-145 prostate): 48.4 µM
TGI (DU-145 prostate): > 100 µM
GI50 (SK-MEL-28 melanoma): 20 µM
TGI (SK-MEL-28 melanoma): 74.8 µM
GI50 (SNB-75 CNS): 12 µM
TGI (SNB-75 CNS): 65.3 µM
GI50 (PC-3 prostate): 16 µM
TGI (PC-3 prostate): 82.2 µM
GI50 (UO-31 renal): 16.8 µM
TGI (UO-31 renal): > 100 µM
GI50 (SK-MEL-2 melanoma): 18 µM
TGI (SK-MEL-2 melanoma): > 100 µM
GI50 (A549 NSCLC): 13.4 µM
TGI (A549 NSCLC): > 100 µM
GI50 (HCT-15 colon): 28.5 µM
TGI (HCT-15 colon): > 100 µM
GI50 (SF-539 CNS): 39.8 µM
TGI (SF-539 CNS): > 100 µM
GI50 (MALME-3M melanoma): 16.9 µM
TGI (MALME-3M melanoma): 42.6 µM
GI50 (UACC-257 melanoma): 7.11 µM
TGI (UACC-257 melanoma): 69.5 µM
GI50 (HS 578T breast): 21.2 µM
TGI (HS 578T breast): > 100 µM
GI50 (OVCAR-5 ovarian): > 100 µM
TGI (OVCAR-5 ovarian): > 100 µM
GI50 (M14 melanoma): 20.2 µM
TGI (M14 melanoma): 55.3 µM
GI50 (NCI-H226 lung): 13.9 µM
TGI (NCI-H226 lung): > 100 µM
GI50 (HT29 colon): 20.4 µM
TGI (HT29 colon): 65.9 µM
GI50 (OVCAR-8 ovarian): 25 µM
TGI (OVCAR-8 ovarian): > 100 µM
GI50 (NCI-H522 lung): 10.2 µM
TGI (NCI-H522 lung): 59 µM
GI50 (MCF7 breast): 14.3 µM
TGI (MCF7 breast): > 100 µM
GI50 (HCC-2998 colon): 26.7 µM
